According to paper PMC5122374 (Oncotarget, 2016):

Key:
NCI-H1993 cells = assay: Cell proliferation assay (SRB or MTT); format: cell-based; conditions: Homo sapiens, NCI-H1993, 72 h; read-out: anti-proliferative IC50
Procedure: (§1) Cells were seeded in 96-well tissue culture plates. On the next day, cells were exposed to various concentrations of compounds and further cultured for 72 h. For Human umbilical vascular endothelial cells (HUVEC) (passage 3) were transferred to basal medium (without growth factor and serum) for 24 h before compounds treated for another 24 h. Finally, cell proliferation was determined using sulforhodamine B (SRB) assay, Thiazolyl Blue Tetrazolium Bromide (MTT; Sigma) assay or Cell Counting Kit (CCK-8) assay. IC50 values were calculated by concentration-response curve fitting using a SoftMax pro-based four-parameter method.

MKN-45 cells [1] = assay: Cell proliferation assay (SRB or MTT); format: cell-based; conditions: Homo sapiens, MKN-45, 72 h, read-out: anti-proliferative IC50
Procedure: as §1

EBC-1 cells [2] = assay: Cell proliferation assay (SRB or MTT); format: cell-based; conditions: Homo sapiens, EBC-1, 72 h; read-out: anti-proliferative IC50
Procedure: as §1

SNU-5 cells = assay: Cell proliferation assay (SRB or MTT); format: cell-based; conditions: Homo sapiens, SNU-5, 72 h, read-out: anti-proliferative IC50
Procedure: as §1

MDCK cells [3] = assay: HGF-induced scattering assay; format: cell-based, canine; conditions: 18 to 24 h
Procedure: MDCK cells (1.5×10^3 cells per well) were plated in 96-well plates and grown overnight. […] The cells were fixed with 4% paraformaldehyde for 15 min at room temperature and then stained with 0.2% crystal violet. The assay was performed in triplicate. Images were obtained using an Olympus IX51 microscope.

MDCK cells [4] = assay: HGF-induced cell branching morphogenesis in collagen; format: cell-based, canine; conditions: 5 days
Procedure: MDCK cells at a density of 2×10^4 cells/mL in DMEM medium were mixed with an equal volume of collagen I solution and plated at 0.1 mL/well in a 96-well culture plate. […] The medium was replaced with fresh growth medium every 2 days. Images were obtained using an Olympus IX51 microscope after 5 days.

[5] = Cell proliferation assay, cell panel (SRB or MTT); format: cell-based; conditions: human, panel of cells with low c-Met expression or activation; read-out: cytotoxicity IC50 values
Procedure: as §1

NCI-H441 cells [6] = assay: HGF-induced Transwell migration assay; format: cell-based, human; conditions: NCI-H441, HGF 100 ng/mL, 24 h
Procedure: (§2) For the migration assay, NCI-H441 cells suspended in serum-free medium (1.5×10^5 cells per well) were seeded in 24-well Transwell plates (pore size, 8 μm; Corning). […] The cultures were maintained for 24 h, followed by the removal of non-motile cells at the top of the filter using a cotton swab. The migrating cells were fixed in paraformaldehyde (4%) and stained with crystal violet (0.1%) for 15 min at room temperature. The dye that was taken up by the cells bound to the membrane was released by the addition of 100 μL 10% acetic acid, and the absorbance of the resulting solution was measured at 595 nm using a multiwell spectrophotometer (SpetraMAX 190, from Molecular Devices, Palo Alto, CA, USA). The assay was performed in triplicate. Images were obtained using an Olympus BX51 microscope.

[7] = system: c-Met phosphorylation and its downstream signaling; assay: Immunoblotting of c-Met signaling in HGF-stimulated HUVEC cells; format: cell-based, human; conditions: Simm530 2 h then 100 ng/mL HGF 15 min
Procedure: Cells were cultured under regular growth conditions to exponential growth phase. […] Those cell lysates were subsequently resolved on 10% SDS-PAGE, and transferred to nitrocellulose membranes. Proteins were probed with specific antibody then subsequently with secondary horseradish peroxidase-conjugated antibody. Finally, immunoreactive proteins were detected using an enhanced chemiluminescence detection reagent (Pierce, Thermo Fisher Scientific Inc.).

[8] = system: uPA activity in MDCK cells; assay: Urokinase-type plasminogen activator (uPA) assay; format: cell-based, canine; conditions: HGF 100 ng/mL, 24 h, dose-dependent
Procedure: MDCK cells (1.5-2 ×10^3 cells per well) were plated in 96-well plate and grown overnight. […] The plate was processed for determination of plasminogen activity by first rinsing wells twice with DMEM (without phenol red), then adding 200 μL of reaction buffer [10%(v/v) 3 mM chromozym PL (Roche) in 100 mM glycine, 40%(v/v) 50 mM Tris (pH 8.2), 50%(v/v) 0.05 unit/mL plasminogen (Roche) in DMEM (without phenol red), and 0.2% Tween-20] to each well. After incubation at 37°C, 5% CO2 for 6 h, the absorbance of each well was read at 405 nm.

[9] = system: EBC-1 human NSCLC xenograft; assay: In vivo antitumor activity, EBC-1 xenograft
Procedure: . Animal procedures were performed according to institutional ethical guidelines of animal care. […]. After that, the well-developed tumors were cut into 1 mm^3 fragments and transplanted s.c. into the right flank of nude mice using a trocar. When the tumor volume reached 100-200 mm^3, the mice were randomly assigned into vehicle and treatment groups (n = 6 per group). […] The sizes of the tumors were measured twice per week using microcaliper. The tumor volume (TV) was calculated as: TV = (length×width^2)/2 and the individual relative tumor volume (RTV) was calculated as follows: RTV = Vt/V0, where Vt is the volume on each day, and V0 is the volume at the beginning of the treatment. RTV was shown on indicated days as the median RTV ± SE indicated for groups of mice.
Tumor specimens were fixed in 4% paraformaldehyde for 24 h. Tumor samples were subsequently paraffin-embedded, and sliced onto microscope slides. After dewaxing and blocking endogenous peroxidase activity with 3% H2O2, the sections were incubated with 1.5% normal goat serum, followed by overnight incubation at 4°C with anti-phospho-c-Met antibody (Y1234/1235), anti-CD31 antibody or anti-Ki67 antibody. Then, the sections were incubated with biotin-conjugated anti-rabbit IgG for 2 h at 37°C followed by incubating for 1 h with avidin-biotin-peroxidase complex (ABC) using a Vectastain ABC kit(Vector Laboratories). Staining was detected using the DAB (3, 3′-diaminobenzidine tetrahydrochloride) Liquid System (ZSGB-Bio) and imaged in 5 different fields of each section. Anti-phospho-c-Met and anti-CD31 antibody immunostained sections were counterstained using hematoxylin.

[10] = system: MMP-9 expression in NCI-H441 cells; assay: Gelatin zymography of HGF-induced MMP-9 expression; format: cell-based, human; conditions: NCI-H441, HGF 100 ng/mL, 24 h, dose-dependent
Procedure: NCI-H441 cells were seeded in a six-well plate (5×10^5 per well) and incubated at 37°C. […] The conditioned medium was collected and centrifuged at 12,000 g for 15 min and concentrated by Micro centrifugal filter device (Millipore Corporation). Then the supernatants were collected and separated on 7.5% SDS-PAGE with 2 mg/mL gelatin incorporated into the gel mixture. Following electrophoresis at 4°C, the gels were rinsed briefly with distilled water and washed three times (15 min each) with 150 ml of 2.5% Triton X-100 solution on a rotary shaker. The gels were then incubated at 37°C for 18 h in 250 ml of 50 mmol/L Tris·HCl (pH 7.5) that contained 10 mmol/L CaCl2, 1 μM ZnCl2, 1% Triton X-100, and 0.02% NaN3. After incubation, the gels were stained with 100 ml of 50% methanol, 10% acetic acid, and 0.1% Coomassie blue R-250 for 3 h, then destained with 50% methanol and 10% acetic acid. Finally, the gels were immersed in distilled water for 20 min and quantified by densitometric analysis using Image Lab software (Bio-Rad Laboratories, Inc.).

MKN-45 cells [11] = assay: Cell cycle analysis by flow cytometry; format: cell-based, human; conditions: MKN-45, 24 h
Procedure: (§3) After 24 h, cells were collected, fixed and stained with propidium iodide (10 μg/mL) for 30 min, then analyzed using a flow cytometer (FACS Caliber instrument; Becton, Dickinson & Co.). Data were plotted using CellQuest (Becton, Dickinson &Co).

EBC-1 cells [12] = assay: Cell cycle analysis by flow cytometry; format: cell-based, human; conditions: EBC-1, 24 h
Procedure: as §3

NCI-H441 cells [13] = assay: HGF-induced Matrigel invasion assay; format: cell-based, human; conditions: NCI-H441, HGF 100 ng/mL, 24 h
Procedure: as §2
For the invasion assay, NCI-H441 cells were cultured in the top chambers containing Matrigel-coated membrane inserts (Matrigel, BD). The ensuing procedure was identical to the migration assay. The assay was performed in triplicate. Images were obtained using an Olympus BX51 microscope.

[14] = system: SNU-5 human gastric carcinoma xenograft; assay: In vivo antitumor activity, SNU-5 xenograft; parameters: species or system nude mice
Procedure: Female nude mice (4-6 weeks) were housed five or six mice per cage in a specific pathogen-free room with a 12 h light/dark schedule at 25°C ± 1°C and were fed an autoclaved chow diet and water ad libitum. Animal procedures were performed according to institutional ethical guidelines of animal care. […] After that, the well-developed tumors were cut into 1 mm^3 fragments and transplanted s.c. into the right flank of nude mice using a trocar. […] The sizes of the tumors were measured twice per week using microcaliper. The tumor volume (TV) was calculated as: TV = (length×width^2)/2 and the individual relative tumor volume (RTV) was calculated as follows: RTV = Vt/V0, where Vt is the volume on each day, and V0 is the volume at the beginning of the treatment. RTV was shown on indicated days as the median RTV ± SE indicated for groups of mice. […] Tumor specimens were fixed in 4% paraformaldehyde for 24 h. Tumor samples were subsequently paraffin-embedded, and sliced onto microscope slides. […] Staining was detected using the DAB (3, 3'-diaminobenzidine tetrahydrochloride) Liquid System (ZSGB-Bio) and imaged in 5 different fields of each section. Anti-phospho-c-Met and anti-CD31 antibody immunostained sections were counterstained using hematoxylin. Serum levels of human IL-8 were detected by using Human IL-8 Quantikine ELISA Kit (R&D Systems, Inc.) follows the instructions.

**Q.** With Cn1cc(-c2cnc3nnc(C(F)(F)c4ccc5ncccc5c4)n3n2)cn1 [Simm530] as the compound, how does the IC50 (NCI-H1993 cells) read?
**A.** 0.8 nM

**Q.** What about the IC50 (MKN-45 cells [1]) of the same compound?
**A.** 0.7 ± 0.1 nM

**Q.** What about the IC50 (EBC-1 cells [2]) of the same compound?
**A.** 0.7 nM

**Q.** And the IC50 (SNU-5 cells)?
**A.** 0.9 ± 0.2 nM

**Q.** And the “effect on HGF-induced cell scattering” value (MDCK cells [3])?
**A.** strongly inhibited

**Q.** What about the “effect on HGF-induced branching morphogenesis” value (MDCK cells [4]) of the same compound?
**A.** strongly inhibited

**Q.** And the IC50 at 72 h [5]?
**A.** > 50000 nM

**Q.** What about the “dose sufficient to block the movement of most cells (motility)” value (NCI-H441 cells [6]) of the same compound?
**A.** 4 nM

**Q.** And the “effect on c-Met phosphorylation and its downstream signaling” value [7]?
**A.** potently inhibited

**Q.** What about the “effect on HGF-induced urokinase activity” value [8] of the same compound?
**A.** significantly inhibited

**Q.** What about the tumor response ([9]; 12.5 mg/kg oral twice daily) of the same compound?
**A.** Tumor stasis

**Q.** And the “mice showing no signs of tumor” value ([9]; 100 mg/kg twice daily)?
**A.** 4 of the 6

**Q.** And the tumor response ([9]; 50 and 100 mg/kg oral twice daily)?
**A.** tumor regression

**Q.** And the “intratumoral phosphorylation of c-Met” value ([9]; 2 hours after the final dosage, immunoblotting)?
**A.** marked and dose-dependent inhibition

**Q.** And the “CD31-positive endothelial cells (microvessel density)” value ([9]; IHC, 2 h after final administration)?
**A.** significant reduction

**Q.** What about the “tolerance (body weight)” value ([9]; all tested dosages, data not shown) of the same compound?
**A.** lack of significant weight loss

**Q.** And the “effect on HGF-induced MMP expression” value [10]?
**A.** significantly inhibited

**Q.** What about the “sub-G1 cell population (apoptosis)” value (MKN-45 cells [11]) of the same compound?
**A.** no obvious sub-G1 cell population

**Q.** And the “effect on cell cycle distribution” value (MKN-45 cells [11]; dose-dependent, P<0.001)?
**A.** G1/S phase arrest

**Q.** And the “sub-G1 cell population (apoptosis)” value (EBC-1 cells [12])?
**A.** no obvious sub-G1 cell population

**Q.** What about the “effect on cell cycle distribution” value (EBC-1 cells [12]; dose-dependent, P<0.001) of the same compound?
**A.** G1/S phase arrest

**Q.** And the “dose sufficient to block the movement of most cells (invasion)” value (NCI-H441 cells [13])?
**A.** 4 nM

**Q.** What about the tumor response ([14]; 12.5 mg/kg and 25 mg/kg oral twice daily) of the same compound?
**A.** tumor stasis and regression

**Q.** And the “intratumoral phosphorylation of c-Met” value ([14]; 2 hours after the final dosage, immunoblotting and IHC)?
**A.** marked and dose-dependent inhibition

**Q.** What about the IL-8 plasma level ([14]; human IL-8 ELISA, day 21, P<0.001) of the same compound?
**A.** significant reduction
